We go through twelve compounds from patent US11059795B2, “Androgen receptor modulators and methods for their use” (ESSA Pharma, Inc., priority 2018, dated 2021).

pIC50: −log10 of the molar value. Like-named read-outs stand apart in the source and are kept apart here. Some results are limits rather than exact numbers.

One data set addresses T1, androgen receptor (AR) (Homo sapiens, UniProt P10275, T878A).
T1 construct: LNCaP cells were transiently transfected with the PSA (6.1 kb)-luciferase reporter for 24 h; endogenous in cells; host or cells: LNCaP
T1 sequence (P10275 1-920 T878A): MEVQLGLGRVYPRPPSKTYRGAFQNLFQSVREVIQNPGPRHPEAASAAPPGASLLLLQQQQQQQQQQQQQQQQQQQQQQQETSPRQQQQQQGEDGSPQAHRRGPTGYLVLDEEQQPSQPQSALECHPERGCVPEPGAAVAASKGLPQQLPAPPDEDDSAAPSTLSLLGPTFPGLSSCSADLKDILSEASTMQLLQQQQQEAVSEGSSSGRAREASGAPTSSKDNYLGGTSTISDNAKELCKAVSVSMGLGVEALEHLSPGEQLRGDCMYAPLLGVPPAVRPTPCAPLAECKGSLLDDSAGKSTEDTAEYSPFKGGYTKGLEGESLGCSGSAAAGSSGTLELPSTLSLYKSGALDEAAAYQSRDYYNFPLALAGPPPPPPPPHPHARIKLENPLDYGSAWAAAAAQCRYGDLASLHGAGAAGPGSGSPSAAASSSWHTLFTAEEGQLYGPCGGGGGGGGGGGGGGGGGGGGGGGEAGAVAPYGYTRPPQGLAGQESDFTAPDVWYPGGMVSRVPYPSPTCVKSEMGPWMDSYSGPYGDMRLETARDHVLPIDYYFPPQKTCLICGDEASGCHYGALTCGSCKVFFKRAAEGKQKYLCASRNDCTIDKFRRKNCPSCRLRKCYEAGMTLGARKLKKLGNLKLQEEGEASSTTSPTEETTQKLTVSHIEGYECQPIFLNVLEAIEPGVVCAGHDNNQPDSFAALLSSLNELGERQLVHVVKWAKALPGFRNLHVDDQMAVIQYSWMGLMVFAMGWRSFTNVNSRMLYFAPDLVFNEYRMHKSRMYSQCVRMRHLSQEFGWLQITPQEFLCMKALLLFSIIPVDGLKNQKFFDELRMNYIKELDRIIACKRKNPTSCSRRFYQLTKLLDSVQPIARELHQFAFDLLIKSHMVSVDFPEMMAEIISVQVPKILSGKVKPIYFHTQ
The experiment in a line: Androgen-induced PSA (6.1 kb)-luciferase reporter assay in LNCaP cells. The class given is cell-based. The settings on record: LNCaP cells transfected with PSA (6.1 kb)-luciferase reporter, R1881 1 nM, 24 h. An outline of the steps: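 LNCaP cells carrying a PSA (6.1 kb) promoter-luciferase reporter with AREs; androgen-induced firefly luciferase read from lysates for 10 s. RLU normalized to protein content; IC50 calculated from the normalized data.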

Data set [1] in a line: Microsomal stability assay, human liver microsomes. It is filed as in vitro ADME. The settings on record: for microsomal CLint at 1 μM: pH 7.4, 1 μM compound, 0.5 mg/mL protein, 37° C., read-out: HLM +/− NADPH: Clint (μL/min/mg protein); for half-life at 1 μM: pH 7.4, read-out: Liver microsome T½ (min) Human. An outline of the steps: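 Compound at 1 μM was incubated at 37° C with 0.5 mg/mL liver microsomes and 1 mM NADPH and/or 1 mM UDPGA (with alamethicin) in 100 mM potassium phosphate pH 7.4, 3 mM MgCl2. Samples were taken at 0, 15, 30 and 60 min and measured by LC/MS/MS. t½ came from compound loss relative to 0 min, and Clint was scaled with 45 mg microsomal protein/g liver.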

Take `Cc1cnc(NS(C)(=O)=O)nc1COc1ccc(C(C)(C)c2cc(Cl)c(OCCCl)c(C#N)c2)cc1` [Compound A122, N-(4-((4-(2-(3-Chloro-4-(2-chloroethoxy)-5-cyanophenyl)propan-2-yl)phenoxy)methyl)-5-methylpyrimidin-2-yl)methanesulfonamide]: on androgen receptor (AR) (read-out: PSA-Luc IC50 Range), the pIC50 is above 6.30. In data set [1], the microsomal CLint at 1 μM is below 12 µL/min/mg.
For the compound `CC(C)(c1ccc(OCc2ocnc2S(C)(=O)=O)cc1)c1cc(Cl)c(OCCCl)c(C#N)c1` [Compound A28, 3-chloro-2-(2-chloroethoxy)-5-(2-(4-((4-(methylsulfonyl)oxazol-5-yl)methoxy)phenyl)propan-2-yl)benzonitrile], the pIC50 on androgen receptor (AR) (read-out: PSA-Luc IC50) is 6.40. Also, the pIC50 on androgen receptor (AR) (read-out: PSA-Luc IC50 Range) is above 6.30. In data set [1], the microsomal CLint at 1 μM was below 12 µL/min/mg and the half-life at 1 μM was above 120 min.
For `CC(C)(c1ccc(OCc2coc(NS(C)(=O)=O)n2)cc1)c1cc(Cl)c(OCCCl)c(Cl)c1` [Compound A38, N-(4-((4-(2-(3,5-dichloro-4-(2-chloroethoxy)phenyl)propan-2-yl)phenoxy)methyl)oxazol-2-yl)methanesulfonamide], the pIC50 at androgen receptor (AR) (read-out: PSA-Luc IC50) is 6.20. The pIC50 on androgen receptor (AR) (read-out: PSA-Luc IC50 Range) is 5.70 to 6.30. For the same compound, in data set [1], the microsomal CLint at 1 μM was below 12 µL/min/mg and the half-life at 1 μM was above 120 min.
With `CC(C)(c1ccc(OCc2nc(S(C)(=O)=O)cs2)cc1)c1cc(Cl)c(OCCCl)c(C#N)c1` [Compound A136, 3-Chloro-2-(2-chloroethoxy)-5-(2-(4-((4-(methylsulfonyl)thiazol-2-yl)methoxy)phenyl)propan-2-yl)benzonitrile], at androgen receptor (AR) (read-out: PSA-Luc IC50 Range), the pIC50 was 5.70 to 6.30. The microsomal CLint at 1 μM in data set [1] is 12 to 48 µL/min/mg.
With `C[C@H](Oc1ccc(C(C)(C)c2cc(Cl)c(OCCCl)c(C#N)c2)cc1)c1ccnc(NS(C)(=O)=O)n1` (single isomer, unassigned) [Compound A170], the pIC50 at androgen receptor (AR) (read-out: PSA-Luc IC50 Range) is 5.70 to 6.30. In addition, in data set [1], the microsomal CLint at 1 μM is below 12 µL/min/mg.
As to `CC(C)(c1ccc(OCc2ccnc(NS(C)(=O)=O)n2)cc1)c1cc(Cl)c(OCCCl)c(Cl)c1` [Compound A74, N-(4-((4-(2-(3,5-dichloro-4-(2-chloroethoxy)phenyl)propan-2-yl)phenoxy)methyl)pyrimidin-2-yl)methanesulfonamide], on androgen receptor (AR) (read-out: PSA-Luc IC50), the pIC50 was 6.18. For the same compound, the pIC50 on androgen receptor (AR) (read-out: PSA-Luc IC50 Range) is 5.70 to 6.30. In data set [1], the microsomal CLint at 1 μM is below 12 µL/min/mg and the half-life at 1 μM is above 120 min.
On to `CCS(=O)(=O)Nc1nccc(COc2ccc(C(C)(C)c3cc(Cl)c(OCCCl)c(C#N)c3)cc2)n1` [Compound A131], for which, on androgen receptor (AR) (read-out: PSA-Luc IC50 Range), the pIC50 is 5.70 to 6.30. Moreover, in data set [1], the microsomal CLint at 1 μM is below 12 µL/min/mg.
Regarding `CC(C)(c1ccc(OCc2ncc(S(C)(=O)=O)s2)cc1)c1cc(Cl)c(OCCCl)c(C#N)c1` [Compound A93, 3-chloro-2-(2-chloroethoxy)-5-(2-(4-((5-(methylsulfonyl)thiazol-2-yl)methoxy)phenyl)propan-2-yl)benzonitrile], the figures for the pIC50 on androgen receptor (AR) (read-out: PSA-Luc IC50) and at androgen receptor (AR) (read-out: PSA-Luc IC50 Range) were 6.69 and above 6.30, respectively. Further, the microsomal CLint at 1 μM in data set [1] was below 12 µL/min/mg. The half-life at 1 μM in data set [1] was above 120 min.
For the compound `CC(C)(c1ccc(OC[C@H](O)CNS(C)(=O)=O)cc1)c1cc(Cl)c(OC[C@H](O)CCl)c(Cl)c1` [X, reference compound], the pIC50 on androgen receptor (AR) (read-out: PSA-Luc IC50) was 5.98. For the same compound, the half-life at 1 μM in data set [1] was above 120 min.
As for `CCS(=O)(=O)Nc1nc(COc2ccc(C(C)(C)c3cc(Cl)c(OCCCl)c(C#N)c3)cc2)co1` [Compound A126], the pIC50 at androgen receptor (AR) (read-out: PSA-Luc IC50 Range) was 5.70 to 6.30. The microsomal CLint at 1 μM in data set [1] is below 12 µL/min/mg.
Turning to `CC(C)(c1ccc(OCc2ccnc(NS(C)(=O)=O)n2)cc1)c1cc(Cl)c(OCCCl)c(C#N)c1` [Compound A109, N-(4-((4-(2-(3-chloro-4-(2-chloroethoxy)-5-cyanophenyl)propan-2-yl)phenoxy)methyl)pyrimidin-2-yl)methanesulfonamide], the pIC50 at androgen receptor (AR) (read-out: PSA-Luc IC50) is 6.27. Further, the pIC50 on androgen receptor (AR) (read-out: PSA-Luc IC50 Range) was 5.70 to 6.30. Further, in data set [1], the microsomal CLint at 1 μM is below 12 µL/min/mg and the half-life at 1 μM was above 120 min.
The corresponding values for `CC(C)(c1ccc(OCc2ocnc2S(C)(=O)=O)cc1)c1cc(Cl)c(OCCCl)c(Cl)c1` [Compound A13, 5-((4-(2-(3,5-dichloro-4-(2-chloroethoxy)phenyl)propan-2-yl)phenoxy)methyl)-4-(methylsulfonyl)oxazole] are 6.23, 5.70 to 6.30, below 12 µL/min/mg and above 120 min.
